In US8815935B2, “Inhibitors of protein prenyltransferases” (The Regents of the University of California, priority 2008, dated 2014):
Like-named read-outs stand apart in the source and are kept apart here.

Legend:
[1] = target: T1, FTase (Rattus norvegicus, UniProt Q02293+Q04631); test: In vitro FTase assay (K-Ras4B substrate, [3H]FPP); format: biochemical; settings: at concentrations at which GGTase-I was inhibited by more than 90%
T1 construct: purchased JENA BIOSCIENCE
Description: To further characterize the pilot library, inhibitors of protein farnesyltransferase were identified. This was accomplished by using K-Ras4B as a substrate protein, tritiated farnesylpyrophosphate ([^3H]FPP) and protein farnesyltransferase. See Finegold, A. A., Johnson, D. I., Farnsworth, C. C., Gelb, M. H., Judd, S. R., Glomset, J. A. and Tamanoi, F. (1991) Protein geranylgeranyltransferase of Saccharomyces cerevisiae is specific for Cys-Xaa-Xaa-Leu motif and requires the CDC43 gene product but not the DPR1 gene product. Proc. Natl. Acad. Sci. USA 88, 4448-4452. […] On the other hand, the structure of the compounds P1-F11, P2-B7 and P2-E9 resemble those of GGTIs. The FTI P1-F11 resembles the GGTI P1-F10, while the FTI P2-B7 resembles the GGTI P2-C10. The FTI P2-E9 is similar to the GGTI P2-G3. Similarity of some GGTI and FTI compounds may point to common structural features between the two closely related enzymes. As described before, FTase and GGTase I have similar three-dimensional structures and a shared alpha subunit. On the other hand, FTase specific inhibitors may recognize a region(s) that is different between the two enzymes.
Examples 2-8 illustrate assays of bioactivity. These methods are applicable to the compounds of the present invention having the particular linkers and scaffolds described herein, to determine their activity. […] Varying concentrations of the two compounds were added to each enzyme reaction. The FTase (protein farnesyltransferase) assay was carried out using K-Ras4B as a substrate protein, FTase (JENA Bioscience, San Diego, Calif.) and [3H]farnesyl pyrophosphate. Incubation was for 30 min at 37° C.
(§1) GGTase-I and FTase activities were determined by following the incorporation of radiolabeled isoprenoid [^3H]-geranylgeranyl or [^3H]-farnesyl into substrate proteins. FTase or GGTase-I (50 nM) were used to initiate reactions containing 0.4 μM of [^3H]-FPP or 0.5 μM of [^3H]-GGPP and 2 μM of MBP-tagged substrates (K-Ras4B for FTase; RhoA for GGTase-I) in 20 μl of buffer {50 mM Tris-HCl (pH 7.5), 10 mM MgCl2, […] and 5 mM DTT}. Inhibitors were added at the indicated concentrations. The final DMSO concentration was 2.5% for all samples.
(§2) Reactions were carried out for 10 min at 30° C. The reaction mixture was spotted onto a filter paper, treated with 10% trichloroacetic acid (TCA) followed by ethanol and acetone washing. The filter was counted using a scintillation counter. Kinetic assays in which the GGPP concentration was varied employed fixed concentrations of GGTase-I and RhoA, and reactions were carried out for 5 min. Similarly, fixed concentrations of GGTase-I and GGPP were used when the amount of RhoA was varied.

[2] = test system: geranylgeranylated Rheb (Rheb-CSVL) in HEK 293 cells; test: Rheb-CSVL mobility shift in HEK 293 cells; format: cell-based, human; settings: 48 hours
Description: Finally, we investigated in vivo effects of compounds 22 (also known as UC-22) and 23 (also known as UC-23). Human embryonic kidney (HEK) 293 cells were transfected with the Rheb-CSVL construct that expresses the geranylgeranylated form of the Rheb protein. Inhibition of the geranylgeranylation of this protein can be detected from a shift in its mobility on SDS polyacrylamide gel; the unprocessed form appears as a slowly migrating band.
Human embryonic kidney (HEK) 293 cells expressing Myc-HA tagged-Rheb-CVSL (upper) or Myc-HA tagged-Rheb-WT (lower) were treated with P3-E5 for 48 hours and then lysed. The cell lysates were run on a SDS polyacrylamide gel and immunoblotted using anti-Myc or anti-Actin antibody. The descriptors P and U indicate processed and unprocessed Rheb, respectively.
Human embryonic kidney (HEK) 293 cells expressing Myc-HA tagged-Rheb-CVSL (upper) or Myc-HA tagged-Rheb-WT (lower) were treated with mP5-H6a (also referred to as mP5-H6), or GGTI-298 for 48 hours and then lysed. Lysates were run on a SDS polyacrylamide gel and immunoblotted with anti-Myc or anti-Actin antibody.

[3] = target: T2, GGTase-I (Rattus norvegicus, UniProt P53610+Q04631); test: In vitro GGTase-I enzyme assay (IC50, kinetics); format: biochemical
T2 construct: purchased JENA BIOSCIENCE
Method: The GGTase-I assay was carried out using RhoA as a substrate protein, GGTase-I (JENA Bioscience) and [3H]geranylgeranyl pyrophosphate. Incubation was for 30 min at 37° C. GGTase-II (or RabGGTase) assay was carried out using YPTI as a substrate protein, GGTase-II (Calbiochem, San Diego, Calif.) plus REP1 (Calbiochem) and [3H]geranylgeranyl pyrophosphate. Incubation was for 30 min at 37° C. FIGS. 20D-20F show the three dimensional structure of GGTase I (D), FTsse (E) and GGTase II (F) which can be obtained from X-ray diffraction studies of protein crystals.
as §1, §2

[4] = test system: Jurkat cells; test: Jurkat cell growth inhibition; format: cell-based, human
Method: In Table 4 in cell GI50 values for the growth inhibition of Jurkat cells are reported. The GI50 value is the concentration of a test compound needed to produce 50% growth inhibition in the cell type listed. In Table 4 the isolated yield of each synthetic step for the synthesis of corresponding compounds are also reported.
(§3) Panc-1 cells (Pancreatic cancer cell line) and Jurkat cells (T-cell leukemia) were treated with 12.5 μM of P5-H6 or 12.5 μM of mP5-H6a for 72 hours. The cell number was counted as described in Example 5.
(§4) Cell viability was determined by Cell Counting Kit-8 (CCK-8, Dojindo, Kumamoto, Japan) as described previously (31). Cell viability was calculated relative to the DMSO control. Cell cycle profile was analyzed by flow cytometry as described previously (32).

[5] = test system: K562 cells; test: K562 cell growth inhibition; format: cell-based, human; settings: no unit printed there
Method: K562 cells are a cell line of human erythroleukemia cells. The K562 cells were treated with P3-E5, P5-H6 or GGTI-298 (a known GGTI compound illustrated in FIG. 27) for 72 hours and then cell number was counted using cell counting kit-8 (Dojindo, Gaithersburg, Md.). Cell viability relative to the DMSO control and the known GGTI compound is plotted in FIG. 23.
as §4

[6] = test system: MDA-MB-231; test: MDA-MB-231 cell growth inhibition; format: cell-based, human; settings: Tables 8-15, no unit printed there
Method: (§5) In FIG. 9-24 in vitro IC50 values for the GGTase I activity are reported. In Tables 7-15 in cell GI50 values for the growth inhibition of a variety of cancer cell lines (e.g., Jurkat, K562, MDA-MB-231, BT474, MCF7, MiaPaCa2, Aspc-1, Panc-1, Capan-2, CFpac-1, and MCF10a) are reported.
as §4

[7] = test system: BT474; test: BT474 cell growth inhibition; format: cell-based, human; settings: no unit printed there
Method: as §5, §4

[8] = test system: MiaPaCa2; test: MiaPaCa2 cell growth inhibition; format: cell-based, human; settings: no unit printed there
Method: as §5, §4

[9] = test system: Aspc-1; test: Aspc-1 cell growth inhibition; format: cell-based, human; settings: no unit printed there
Method: as §5, §4

[10] = test system: Panc-1; test: Panc-1 cell growth inhibition; format: cell-based, human; settings: no unit printed there
Method: as §5, §3, §4

[11] = test system: Capan-2; test: Capan-2 cell growth inhibition; format: cell-based, human; settings: no unit printed there
Method: as §5, §4

[12] = test system: CFpac-1; test: CFpac-1 cell growth inhibition; format: cell-based, human; settings: no unit printed there
Method: as §5, §4

[13] = Tables 3, 5, 7, read-out: In vitro (enzyme assay) IC50, GGTase I
[14] = Tables 8-15, no unit printed there (Table 7 head: μM unless otherwise specified), read-out: In vitro (GGTase I IC50)
[15] = Homo sapiens, Jurkat, Tables 4, 6, 7, read-out: Jurkat cell GI50
[16] = Homo sapiens, Jurkat, Tables 8-15, no unit printed there, read-out: Jurkat GI50
[17] = Homo sapiens, K562, Tables 8-15
[18] = Homo sapiens, BT-474, Tables 8-15
[19] = Homo sapiens, MIA PaCa-2, Tables 8-15
[20] = Homo sapiens, ASPC1, Tables 8-15
[21] = Homo sapiens, PANC-1, Tables 8-15
[22] = Homo sapiens, Capan-2, Tables 8-15

Compound | inhibition of FTase [1] | IC50 [3, 13] [µM] | IC50 [3, 14] [µM] | GI50 [4, 15] [µM] | GI50 [4, 16] [µM] | GI50 [5, 17] [µM] | GI50 [7, 18] [µM] | GI50 [8, 19] [µM] | GI50 [9, 20] [µM] | GI50 [10, 21] [µM] | inhibition of geranylgeranylation of Rheb-CSVL (slowly migrating unprocessed band) [2] | GI50 [11, 22] [µM] | other results
CC(C)(C)[C@@H]1C=C(C(=O)N[C@@H](Cc2ccccc2)C(N)=O)[C@H](c2ccc(Br)cc2)N1S(=O)(=O)c1ccccc1Cl [P61-B08] |  | 16 | 6 | 4.74 | 4.74 | 5.21 | 9.08 | 6.15 | 12.2 | 9.05 |  | 8.32 | GI50 ([6]; listed as P61B8): 4.43 µM; GI50 ([12]; Homo sapiens, CFPAC-1, Tables 8-15): 6.16 µM
Cc1ccccc1S(=O)(=O)N1[C@@H](c2ccc(Cl)c(Cl)c2)C(C(=O)N[C@@H](Cc2ccccc2)C(N)=O)=C[C@H]1C(C)(C)C [P61-B10] |  | 5.4 | 5.4 | 5.62 | 5.62 | 6.74 | 10.8 | 8.06 | 12.9 | 11.7 |  | 8.45 | GI50 [6]: 12.6 µM; GI50 ([12]; Tables 8-15): 6.09 µM
CC(C)(C)[C@@H]1C=C(C(=O)N[C@@H](Cc2ccccc2)C(N)=O)[C@H](c2ccc(Br)cc2)N1S(=O)(=O)c1ccccc1Cl [P61-B09] |  | > 10 | > 10 |  |  |  |  |  |  |  |  |  | GI50 ([4]; Tables 4, 6, 7, read-out: Jurkat cell GI50): 8.75 µM; GI50 ([4]; Tables 8-15, no unit printed there, listed as P61B9, read-out: Jurkat GI50): 8.75 µM; GI50 ([5]; Tables 8-15, listed as P61B9): 9.18 µM; GI50 ([6]; listed as P61B9): 11.3 µM; GI50 ([7]; Tables 8-15, listed as P61B9): 9.9 µM; GI50 ([8]; Tables 8-15, listed as P61B9): 12.1 µM; GI50 ([9]; Tables 8-15, listed as P61B9): 16.8 µM; GI50 ([10]; Tables 8-15, listed as P61B9): 12 µM; GI50 ([11]; Tables 8-15, listed as P61B9): 10.7 µM; GI50 ([12]; Tables 8-15, listed as P61B9): 6.3 µM

Further lines, with some results ahead:

inhibition of FTase [1] | IC50 [3, 13] [µM] | IC50 [3, 14] [µM] | GI50 [4, 15] [µM] | GI50 [4, 16] [µM] | GI50 [5, 17] [µM] | GI50 [7, 18] [µM] | GI50 [8, 19] [µM] | GI50 [9, 20] [µM] | GI50 [10, 21] [µM] | Compound | inhibition of geranylgeranylation of Rheb-CSVL (slowly migrating unprocessed band) [2] | GI50 [11, 22] [µM] | other results
did not inhibit FTase |  |  |  |  |  |  |  |  |  | Cc1ccccc1S(=O)(=O)N1C(c2ccc(Cl)cc2)CC=C(C(=O)O)[C@@H]1c1cccc(Cl)c1 (stereo partly shown) [compound 23] | inhibit geranylgeranylation within the cell |  | 
did not inhibit FTase |  |  |  |  |  |  |  |  |  | Cc1ccccc1S(=O)(=O)N1[C@@H](c2ccc(Cl)cc2)C(C(=O)O)=C[C@H]1C(C)(C)C [compound 22] | inhibit geranylgeranylation within the cell |  | 
